Reference: PubChem BioAssay AID1195 (EPA DSSTox, 2008)
Starred links: 1 amine or outer side, 2 acyl side, 3 side chain; linkers in the order of their positions; H or OH if unused. Positions of bridges follow the written chain, without caps; N, C: chain ends. Non-standard residues stand in square brackets, D forms with d. Residues, ends and D or L forms follow the SMILES beside them. Chains are numbered I, II in the order given. Actinocin(9to1) = Cc1c2oc3c(C)ccc(C(=O)[*:1])c3nc-2c(C(=O)[*:2])c(N)c1=O; NMeV = CN[C@H](C(=O)O)C(C)C; Sar = CNCC(=O)O

Tested on: human maximum recommended daily dose, FDA database
Test: DSSTox (FDAMDD) FDA Maximum (Recommended) Daily Dose Database
Conditions: hits give low values
In short: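 MRDD values come from clinical trials with daily oral dosing, usually for 3–12 months, for the average adult, in mg/day converted to mg/kg-bw/day assuming 60 kg. Antineoplastic mg/m2 doses are divided by 37. Activity score maps log10(1/MRDD mmol) onto 1–100.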

[1] = TherapeuticCategory: antineoplastic
[2] = TherapeuticCategory: antibacterial
[3] = TherapeuticCategory: bronchodilator
[4] = TherapeuticCategory: sedative, hypnotic
[5] = TherapeuticCategory: glucocorticoid

`Cc1c2oc3c(C)ccc(C(=O)N[C@@H]4C(=O)N[C@H](C(C)C)C(=O)N5CCC[C@H]5C(=O)N(C)CC(=O)N(C)[C@@H](C(C)C)C(=O)O[C@@H]4C)c3nc-2c(C(=O)N[C@@H]2C(=O)N[C@H](C(C)C)C(=O)N3CCC[C@H]3C(=O)N(C)CC(=O)N(C)[C@@H](C(C)C)C(=O)O[C@@H]2C)c(N)c1=O` (I: T[dV]P[Sar][NMeV] / II: T[dV]P[Sar][NMeV]; ester I:1-I:C, II:1-II:C; linker I:N-II:N via Actinocin(9to1)) was tested, and the maximum recommended daily dose (mmol/kg-bw/day) [1] was 1.19e-05.
In the case of `CC(C)(C)c1ccc(CN2CCN(C(c3ccccc3)c3ccc(Cl)cc3)CC2)cc1` (configuration not stated), the maximum recommended daily dose (mmol/kg-bw/day) (TherapeuticCategory: antiemetic) is reported as 0.00577.
`CCN(CC)C(=S)SSC(=S)N(CC)CC` showed a maximum recommended daily dose (mmol/kg-bw/day) (TherapeuticCategory: alcohol deterrent) of 0.0281.
In the case of `O=C(O)C(Cl)Cl`, the maximum recommended daily dose (mmol/kg-bw/day) (TherapeuticCategory: caustic, keratolytic, topical astringent) is reported as 0.517.
`C[C@]12CCC(=O)C=C1C=C[C@@H]1[C@@H]2CC[C@@]2(C)[C@H]1CC[C@@]2(O)CCC(=O)O` gave a maximum recommended daily dose (mmol/kg-bw/day) (TherapeuticCategory: diuretic) of 0.0371.
Work on `O=C1C(CCS(=O)c2ccccc2)C(=O)N(c2ccccc2)N1c1ccccc1` (configuration not stated) yielded a maximum recommended daily dose (mmol/kg-bw/day) (TherapeuticCategory: uricosuric) of 0.0329.
`COc1ccc(C[C@@H](C)NC[C@H](O)c2ccc(O)c(NC=O)c2)cc1` showed a maximum recommended daily dose (mmol/kg-bw/day) (TherapeuticCategory: antiasthmatic) of 0.00775.
Molecule `CCN(CC)C(=O)c1ccc(O)c(OC)c1` has a maximum recommended daily dose (mmol/kg-bw/day) (TherapeuticCategory: central and respiratory stimulant) of 0.0187.
In the case of `C[C@@H](O)[C@H]1C(=O)N2C(C(=O)O)=C(SCCN=CN)C[C@H]12`, the maximum recommended daily dose (mmol/kg-bw/day) [2] is reported as 0.223.
Molecule `COc1ccc2c3c1O[C@H]1C(=O)CC[C@H]4[C@@H](C2)N(C)CC[C@]314` has a maximum recommended daily dose (mmol/kg-bw/day) (TherapeuticCategory: analgesic) of 0.00251.
With `CCN1CC(CCN2CCOCC2)C(c2ccccc2)(c2ccccc2)C1=O` (configuration not stated) the maximum recommended daily dose (mmol/kg-bw/day) (TherapeuticCategory: respiratory stimulant) was 0.0106.
`CC(C)(O)C(C)(O)c1ccc(Cl)cc1` (configuration not stated) showed a maximum recommended daily dose (mmol/kg-bw/day) (TherapeuticCategory: anxiolytic, anticonvulsant) of 0.0932.
`CC[N+]1(C)[C@@H]2CC(OC(=O)[C@H](CO)c3ccccc3)C[C@H]1[C@@H]1O[C@@H]12` (some centres not stated) showed a maximum recommended daily dose (mmol/kg-bw/day) [3] of 2.43e-05.
`CCC(Br)(CC)C(=O)NC(N)=O` was tested, and the maximum recommended daily dose (mmol/kg-bw/day) [4] was 0.0704.
With `CC(=O)[C@]1(O)Cc2c(O)c3c(c(O)c2[C@@H](O[C@H]2C[C@H](N)[C@H](O)[C@H](C)O2)C1)C(=O)c1c(O)cccc1C3=O` the maximum recommended daily dose (mmol/kg-bw/day) [1] was 0.00132.
In the case of `O=C(CCNNC(=O)c1ccncc1)NCc1ccccc1`, the maximum recommended daily dose (mmol/kg-bw/day) (TherapeuticCategory: antidepressant) is reported as 0.0112.
Work on `O=C1CN=C(c2ccccc2Cl)c2cc([N+](=O)[O-])ccc2N1` yielded a maximum recommended daily dose (mmol/kg-bw/day) (TherapeuticCategory: anticonvulsant) of 0.000421.
Work on `CC[N+](C)(C)Cc1ccccc1Br` yielded a maximum recommended daily dose (mmol/kg-bw/day) (TherapeuticCategory: antiadrenergic, cardiac depressant) of 0.0121.
For `CN(C)/N=N/c1nc[nH]c1C(N)=O`, the maximum recommended daily dose (mmol/kg-bw/day) [1] was 0.0247.
Molecule `C[C@H]1C[C@@H]2[C@H]([C@@H](O)C[C@@]3(C)[C@H]2CC[C@]3(O)C(=O)COC(=O)CCCCCCC(=O)N(C)CCS(=O)(=O)O)[C@@]2(C)C=CC(=O)C=C12` has a maximum recommended daily dose (mmol/kg-bw/day) [5] of 0.0061.
For `O=C1CN2CCOC2(c2ccccc2F)c2cc(Cl)ccc2N1CCO` (configuration not stated), the maximum recommended daily dose (mmol/kg-bw/day) (TherapeuticCategory: anxiolytic) was 0.000531.
`C#C[C@]1(O)CC[C@H]2[C@@H]3CCC4=C[C@@H](O)CC[C@@H]4[C@H]3CC[C@@]21C` showed a maximum recommended daily dose (mmol/kg-bw/day) (TherapeuticCategory: progestogen) of 5.56e-05.
`O=NN(CCCl)C(=O)NC1CCCCC1` was tested, and the maximum recommended daily dose (mmol/kg-bw/day) [1] was 0.015.
Molecule `O=C(CCCN1CCC(O)(c2cccc(C(F)(F)F)c2)CC1)c1ccc(F)cc1` has a maximum recommended daily dose (mmol/kg-bw/day) (TherapeuticCategory: antipsychotic) of 0.000325.
For `O=C(O)c1[nH]n(-c2ccc(S(=O)(=O)O)cc2)c(=O)c1N=Nc1ccc(S(=O)(=O)O)cc1`, the maximum recommended daily dose (mmol/kg-bw/day) (TherapeuticCategory: dye) was 0.014.
Molecule `O=C(O)[C@H]1/C(=C/CO)O[C@@H]2CC(=O)N21` has a maximum recommended daily dose (mmol/kg-bw/day) [2] of 0.0314.
With `CNC(C)Cc1ccccc1OC` (configuration not stated) the maximum recommended daily dose (mmol/kg-bw/day) [3] was 0.0558.
With `CN(C)CCOC(c1ccccc1)c1ccc(Br)cc1` (configuration not stated) the maximum recommended daily dose (mmol/kg-bw/day) (TherapeuticCategory: antihistaminic) was 0.00748.
`NC(=S)N=Nc1ccc(NN=C(N)N)cc1` showed a maximum recommended daily dose (mmol/kg-bw/day) [2] of 0.000704.
`CCn1cc(C(=O)O)c(=O)c2cnc(N3CCNCC3)nc21` showed a maximum recommended daily dose (mmol/kg-bw/day) [2] of 0.0438.
For `CN(Cc1cc(Br)cc(Br)c1N)C1CCCCC1`, the maximum recommended daily dose (mmol/kg-bw/day) (TherapeuticCategory: expectorant, mucolytic) was 0.00213.
`CC(C)(C)CC(=O)OCC(=O)[C@@]1(O)CC[C@H]2[C@@H]3CCC4=CC(=O)C=C[C@]4(C)[C@H]3[C@@H](O)C[C@@]21C` was tested, and the maximum recommended daily dose (mmol/kg-bw/day) [5] was 0.00726.
`CCCCCCCCCCC[C@@H](C[C@@H]1OC(=O)[C@H]1CCCCCC)OC(=O)C(CC(C)C)NC=O` (some centres not stated) showed a maximum recommended daily dose (mmol/kg-bw/day) (TherapeuticCategory: antiobesity) of 0.0121.
`Cc1nnc(NS(=O)(=O)c2ccc(N)cc2)s1` gave a maximum recommended daily dose (mmol/kg-bw/day) [2] of 0.247.
For `C=C1/C(=C\C=C2/CCC[C@]3(C)[C@@H]([C@H](C)CCCC(C)(C)O)CC[C@@H]23)C[C@@H](O)C[C@@H]1O`, the maximum recommended daily dose (mmol/kg-bw/day) (TherapeuticCategory: calcium regulator) was 1.2e-07.
Work on `CC(=O)Oc1ccc(C(c2ccc(OC(C)=O)cc2)c2ccccn2)cc1` yielded a maximum recommended daily dose (mmol/kg-bw/day) (TherapeuticCategory: cathartic) of 0.000692.
Molecule `C=CCC1(C(C)CCC)C(=O)N=C(O)NC1=O` (configuration not stated) has a maximum recommended daily dose (mmol/kg-bw/day) [4] of 0.0128.
